Measurements as given in publication PMC4122966, “Novel VCP modulators mitigate major pathologies of rd10, a mouse model of retinitis pigmentosa” (Scientific Reports, 2014).

Key:
[1] = tested on: tunicamycin-treated HeLa cells; assay: western blot of ER stress markers and phospho-Akt in tunicamycin-treated cells; type: cell-based; details: Tm 0.5 μg/ml, 5 hours, 0.1 mM ATP
Procedure: Figure 2 Prevention of cell death and ER stress by KUSs. (a) Photographs of HeLa cells, cultured with DMSO (DMSO) or KUSs (KUS94, KUS121, and KUS187, 20 μM each) for 41 hours in low glucose (0.2 g/l) medium. Scale bar, 100 μm. (b–e) WST (water-soluble tetrazolium salts) values reflecting relative live cell numbers are shown, as optical density (OD) at 450 nm. Error bars indicate SD. (b) WST values of HeLa cells, cultured in low glucose (0.2 g/l) with DMSO (control) or KUSs (50 μM for KUS121; 20 μM for KUS69, KUS94, and KUS187, n = 3) for 41 hours. (c) Cell viability, indicated by WST values of HeLa cells, cultured with tunicamycin (Tm) (0.2 μg/ml) for 41 hours with KUSs (20 μM each, n = 3). (d) WST values of HEK293 cells, cultured under serum-free conditions for 65 hours with DMSO (control) or KUSs (20 μM each, n = 3). *** P < 0.001, vs. DMSO control (Dunnett's test). (e) WST values of HeLa cells, cultured in low glucose (0.2 g/l) medium with different concentrations of KUS121 (5, 10, 20, and 50 μM, n = 3) for 41 hours. ** P = 0.008, *** P < 0.001, vs. DMSO control (Dunnett's test). […]
Figure 4 KUSs and ATP each prevented a decrease of ATP levels and ameliorated ER stress in tunicamycin-treated cells. […] Normally growing HeLa cells were also analyzed (Control). […] Then, ATP amounts from 1.5 × 10^5 cells were measured. * P < 0.05, ** P < 0.01. […]

[2] = tested on: HeLa cells; assay: immunocytochemistry of laminin γ1 aggregation in tunicamycin-treated cells; type: cell-based
Procedure: (§1) Figure 4 KUSs and ATP each prevented a decrease of ATP levels and ameliorated ER stress in tunicamycin-treated cells. (a) Immunocytochemical analyses of HeLa cells by an anti-laminin γ1 antibody. HeLa cells were treated with 0.5 μg/ml of tunicamycin (Tm) for 5 hours in the presence of KUSs (50 μM), ATP (0.1, 0.3, and 1 mM), methylpyruvate (MePyr) (3 and 10 mM), or vehicle alone (DMSO). Then, cells were fixed and subjected to immunocytochemical analyses. Normally growing HeLa cells were also analyzed (Control). Scale bar, 10 μm. (b) Measurements of the relative amounts of ATP per cell. HeLa cells were treated with tunicamycin (Tm, 0.5 μg/ml) for 24 hours in the presence of KUSs (50 μM) or ATP (0.1 and 1 mM), or vehicle alone (DMSO), and were harvested. Then, ATP amounts from 1.5 × 10^5 cells were measured. * P < 0.05, ** P < 0.01. Error bars indicate SD. (c) Western blot analyses on CHOP. HeLa cells were treated with 0.5 μg/ml of tunicamycin for 5 hours in the presence of KUSs (50 μM), ATP (0.1, 0.3, and 1 mM), methylpyruvate (MePyr) (3 and 10 mM), or vehicle alone (-). Then, cells were harvested and subjected to western blot analyses. Actin served as a loading control. Complete scans of the different blots are presented in Supplementary Fig. 9.

[3] = tested on: HeLa cells; assay: relative ATP amounts per cell in tunicamycin-treated cells; type: cell-based; details: Tm 0.5 μg/ml, 24 hours, ATP 0.1 and 1 mM
Procedure: as §1

[4] = tested on: cellular VCP functions; assay: immunoblot of ubiquitinated proteins, CHOP (ER stress) and LC3 (autophagy) in cultured cells; type: cell-based
From the text: (§2) Figure 1 Structures and characterization of KUSs, novel VCP modulators. (a) Structures and IC50 values of KUS11, KUS31, KUS69, KUS94, KUS121, and KUS187. […] (b) ATPase activity assays of recombinant human […], comparing KUSs and DBeQ. (c) Immunoblot analysis of ubiquitinated proteins, an ER stress marker (CHOP), and an autophagy indicator (LC3), comparing KUSs and DBeQ. As a control, MG132, a proteasome inhibitor, was used for the analysis. Actin served as a loading control. Complete scans of the different blots are presented in Supplementary Fig. 7. (d) Comparison of KUSs and DBeQ for cell death-inducing activities. HeLa cells were treated with 50 μM DBeQ or KUSs for 24 hours. […]

[5] = tested on: HeLa cells; assay: cell death-inducing activity; type: cell-based; details: 50 μM, 24 hours
From the text: as §2

[6] = tested on: VCP; set-up: method as in PMID 21383145; details: reported value; read-out: in vitro IC50 (half maximal inhibitory concentration) for VCP; cited from earlier work

| SMILES | induction of ER stress (CHOP induction) [1] | aggregation of laminin γ1 ([2]; HeLa, Tm 0.5 μg/ml, 5 hours, 0.1 mM ATP) | aggregation of laminin γ1 ([2]; HeLa, Tm 0.5 μg/ml, 5 hours, 1 mM ATP) | aggregation of laminin γ1 ([2]; tunicamycin-treated HeLa cells, ATP at 0.3 to 1 mM) | decrease of ATP levels in tunicamycin-treated cells [3] | induction of accumulation of ubiquitinated proteins, ER stress (CHOP), autophagy (LC3) [4] | induction of cell death [5] | IC50 [6] |
| --- | --- | --- | --- | --- | --- | --- | --- | --- |
| Nc1ncnc2c1ncn2[C@@H]1O[C@H](COP(=O)(O)OP(=O)(O)OP(=O)(O)O)[C@@H](O)[C@H]1O [ATP] | dampen the induction of ER stress | ineffective in preventing the aggregation of laminin γ1 | clearly prevented the aggregation of laminin γ1 | prevented the aggregation of laminin γ1 | prevented decreases of ATP levels |  |  |  |
| c1ccc(CNc2nc(NCc3ccccc3)c3ccccc3n2)cc1 [DBeQ, reference compound] |  |  |  |  |  | induced accumulation of ubiquitinated proteins, ER stress, autophagy | eventually cell death | 1 µM |
